Measurements from US7202265B2, “Indolinone combinatorial libraries and related products and methods for the treatment of disease” (Sugen, Inc., priority 1997, dated 2007).

Each molecule was assayed on human MET (assay: MET biochemical kinase assay).
Design: concentration or dose not given beside the values
From the text: (d) MET Biochemical Kinase Assay
A met biochemical kinase assay may be performed for met generally as described above for other kinases by substituting that or the other kinases. In particular, ELISA plates are coated with goat anti-rabbit Fc antibodies, which are used to capture commercially available (from Santa Cruz Biotechnology) rabbit polyclonal antibodies to the cytoplasmic domain of human MET. […] The chimeric receptors, or MET, from these lysates are captured on the antibody coated plates. After washing away extraneous proteins, test compounds are added and an in vitro kinase assay is performed by addition of an appropriate kinase buffer (containing ATP, divalent metal ions, etc.). Incorporation of phosphate into the captured receptors is detected with an anti-phosphotyrosine antibody conjugate with horse radish peroxidase using TMB as a substrate for calorimetric detection.

Structure (SMILES)	Met Kinase % Inhibition
CCN(CC)c1ccc(C=C2C(=O)Nc3c(Br)cc(Br)cc32)cc1 [10727/A02]	52.0%
COc1c(C(C)C)cc(C=C2C(=O)Nc3ccc(S(=O)(=O)Nc4ccc(C(F)(F)F)cc4)cc32)cc1C(C)C [10732/E03]	3.9%
O=CN1CCN(c2ccc(C=C3C(=O)Nc4ccc(I)cc43)cc2)CC1 [10725/B07]	74.0%
CNS(=O)(=O)c1ccc2c(c1)C(=Cc1ccc(C(F)(F)F)cc1)C(=O)N2 [10722/D11]	41.0%
O=C1Nc2c(Br)cc(Br)cc2C1=Cc1cc2ccccc2nc1Cl [10730/A08]	69.0%
CNS(=O)(=O)c1ccc2c(c1)C(=Cc1ccc(O)c(C)c1)C(=O)N2 [10723/D06]	60.0%
CCOc1cccc(C=C2C(=O)Nc3ccc(S(=O)(=O)N4CCOCC4)cc32)c1O [10734/F02]	55.0%
Cc1ccsc1C=C1C(=O)Nc2ccc(I)cc21 [10729/B05]	51.0%
CC(C)(C)c1cc(C=C2C(=O)Nc3c(Br)cc(Br)cc32)c(O)c(C(C)(C)C)c1 [10723/A11]	60.0%
Cc1cc(C=C2C(=O)Nc3ccc(S(=O)(=O)Nc4ccc(C(F)(F)F)cc4)cc32)cc(C)c1OCc1ccccc1 [10733/E07]	−10.1%
Cc1c(Br)ccc2c1C(=Cc1ccc(Br)o1)C(=O)N2 [10726/C05]	58.0%
Cc1cn(C)cc1C=C1C(=O)Nc2ccc(S(=O)(=O)Nc3ccc(C(F)(F)F)cc3)cc21 [10726/E06]	−7.4%
CCOc1ccc(C=C2C(=O)Nc3ccc(CCCl)cc32)cc1OC [10719/G02]	−2.4%
CCOC(=O)c1cc(C=C2C(=O)Nc3ccc(CCCl)cc32)oc1C [10718/G06]	61.0%
N#Cc1cccc(C=C2C(=O)Nc3c(Br)cc(Br)cc32)c1 [10727/A08]	9.7%
CNS(=O)(=O)c1ccc2c(c1)C(=Cc1ccc(O)c(O)c1O)C(=O)N2 [10723/D02]	93.0%
CC(C)c1cc(C=C2C(=O)Nc3ccc(S(=O)(=O)Nc4ccc(C(F)(F)F)cc4)cc32)cc(C(C)C)c1Oc1ccccc1 [10732/E04]	8.2%
O=C1Nc2ccc(S(=O)(=O)Nc3ccc(C(F)(F)F)cc3)cc2C1=Cc1ccncc1 [10729/E09]	85.0%
O=C1Nc2ccc(I)cc2C1=Cc1cccnc1 [10729/B08]	66.0%
Cc1cc(C=C2C(=O)Nc3c(Br)cc(Br)cc32)oc1C [10730/A11]	91.0%
CNS(=O)(=O)c1ccc2c(c1)C(=Cc1ccc(O)c(C(C)(C)C)c1)C(=O)N2 [10721/D09]	−4.9%
Cc1c(Br)ccc2c1C(=Cc1c(Br)cnn1-c1ccc(Cl)cc1)C(=O)N2 [10725/C10]	−0.6%
Cn1cccc1C=C1C(=O)Nc2ccc(I)cc21 [10717/B04]	70.0%
COc1c(I)cc(C=C2C(=O)Nc3ccc(CCCl)cc32)cc1C(C)(C)C [10732/G11]	63.0%
Cc1c(Br)ccc2c1C(=Cc1ccccc1Sc1ccc(Cl)cc1)C(=O)N2 [10727/C05]	8.9%
O=C1Nc2ccc(S(=O)(=O)Nc3ccc(C(F)(F)F)cc3)cc2C1=Cc1cc2c(cc1Cl)OCO2 [10727/E06]	−2.2%
Cc1c(Br)ccc2c1C(=Cc1ncc[nH]1)C(=O)N2 [10720/C11]	30.0%
CCc1ccc(C=C2C(=O)Nc3ccc(I)cc32)o1 [10724/B10]	95.0%
O=C1Nc2ccc(S(=O)(=O)Nc3ccc(C(F)(F)F)cc3)cc2C1=Cc1ccc(C(F)(F)F)cc1 [10722/E11]	84.0%
